Data on ten molecules can be found in ChEMBL document CHEMBL1201862, “PubChem BioAssay data set” (2004).

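1) Cells in 96-well plates. 2) Compound, 48 h, 5 concentrations. 3) Linear interpolation between surrounding doses. 4) Unreached endpoint = highest concentration. GI50 = concentration required for 50% inhibition of growth.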 Activity calls are given as the source filed them. Rule as the data show it: active = GI50 up to about 1.1 µM and inactive = higher.

Some test systems named below: A549; MDA-MB-231; UACC-257; MDA-N; NCI-H23; U-251; SW-620; CAKI-1; SK-MEL-28; CCRF-CEM; HCC 2998; BT-549; SNB-19; HOP-92; NCI-H460; HCT-15; 786-0; HL-60; LOX IMVI; KM12.
Assay in all cases: growth of human tumour cells (NCI), 48 h

`COc1ccccc1C1Nn2c(nc3ccccc3c2=O)N1c1ccc(C)cc1` (stereo not given): the GI50 in the assay with A549 was 6.19 µM (inactive); in the assay on MDA-MB-231, 5.62 µM (inactive); in the assay on UACC-257, 16.3 µM (inactive); with MDA-N, 5.83 µM (inactive); in the assay with NCI-H23, 10.9 µM (inactive); in the assay on U-251, 2.04 µM (inactive). Further, the GI50 is 5.28 µM (inactive) with SW-620; 7.83 µM (inactive) with CAKI-1; 5.94 µM (inactive) with SK-MEL-28; 1.82 µM (inactive) in the assay on CCRF-CEM; 3.8 µM (inactive) with HCC 2998; 21.8 µM (inactive) in the assay on BT-549. The GI50 in the assay with SNB-19 is 6.59 µM (inactive); with HOP-92, 10.4 µM (inactive); in the assay with NCI-H460, 3.37 µM (inactive); in the assay on HCT-15, 3.49 µM; in the assay with 786-0 it was 2.67 µM (inactive); in the assay with HL-60, 10.6 µM (inactive). The GI50 was 7.62 µM (inactive) with LOX IMVI and 11.2 µM (inactive) with KM12.

On to `Cc1c2c(n(CCc3ccc(Cl)cc3)c1C)NC(c1ccccc1)C(C#N)S2(=O)=O` (stereo not given), for which the GI50 in the assay with A549 is 22.5 µM (inactive); in the assay with MDA-MB-231, 11.5 µM (inactive); in the assay with UACC-257, 58.6 µM (inactive); in the assay with MDA-N, 19.9 µM (inactive); with NCI-H23 it was > 47.9 µM (inactive); with U-251, 38.2 µM (inactive). Moreover, the GI50 is > 45.9 µM (inactive) in the assay with SW-620; > 100 µM (inactive) in the assay on CAKI-1; > 76.6 µM (inactive) in the assay with SK-MEL-28; 2.08 µM (inactive) with CCRF-CEM; > 100 µM (inactive) with HCC 2998; 37 µM (inactive) in the assay on BT-549. Besides, the GI50 was > 100 µM (inactive) in the assay with SNB-19; 17.5 µM (inactive) in the assay on HOP-92; 44.1 µM (inactive) in the assay with NCI-H460; over 48 µM with HCT-15; 32.3 µM (inactive) in the assay with 786-0; 7 µM (inactive) in the assay with HL-60. For the same molecule, the figures for the GI50 with LOX IMVI and in the assay with KM12 were 24.5 µM (inactive) and 18.3 µM (inactive), respectively.

`Cc1cc(N2CCCC2)c([N+](=O)[O-])cc1[N+](=O)[O-]`: the GI50 in the assay on A549, with MDA-MB-231, in the assay with UACC-257, with MDA-N, with NCI-H23 and in the assay with U-251 was > 100 µM (inactive) in each case. The GI50 with SW-620, in the assay on CAKI-1, with SK-MEL-28, in the assay on CCRF-CEM, with HCC 2998 and in the assay with BT-549 was > 100 µM (inactive) throughout. Also, the GI50 was > 100 µM (inactive) with SNB-19; > 100 µM (inactive) in the assay on HOP-92; > 100 µM (inactive) in the assay on NCI-H460; over 100 µM with HCT-15; > 100 µM (inactive) in the assay with 786-0; > 100 µM (inactive) in the assay with HL-60. Moreover, the GI50 in the assay with LOX IMVI and in the assay on KM12 was > 100 µM (inactive) throughout.

Regarding `O/N=C1\CCc2cc3c(cc21)CCC3`, the GI50 in the assay on A549, in the assay with MDA-MB-231, with UACC-257, in the assay on MDA-N, with NCI-H23 and in the assay on U-251 was > 100 µM (inactive) each time. For the same molecule, the GI50 in the assay on SW-620, in the assay with CAKI-1, in the assay on SK-MEL-28, in the assay with CCRF-CEM, in the assay on HCC 2998 and in the assay on BT-549 was > 100 µM (inactive) in each case. In addition, the GI50 was > 100 µM (inactive) with SNB-19; 55.7 µM (inactive) in the assay with HOP-92; > 100 µM (inactive) in the assay on NCI-H460; over 100 µM in the assay on HCT-15; > 100 µM (inactive) in the assay on 786-0; 67.5 µM (inactive) in the assay on HL-60. Further, the GI50 with LOX IMVI and with KM12 was > 100 µM (inactive) each time.

Take `O=C1C(Cl)C(c2cc3cc(Br)ccc3nc2Cl)N1c1ccc(F)c(Cl)c1` (stereo not given): the GI50 was 12.6 µM (inactive) in the assay with A549; 8.09 µM (inactive) in the assay on MDA-MB-231; 11.4 µM (inactive) in the assay on UACC-257; 7.03 µM (inactive) in the assay on MDA-N; 3.83 µM (inactive) in the assay with NCI-H23; 2.77 µM (inactive) with U-251. In addition, the GI50 in the assay with SW-620 was 5.98 µM (inactive); in the assay with CAKI-1 it was 0.857 µM (active); with SK-MEL-28 it was 14.6 µM (inactive); in the assay on CCRF-CEM, 0.418 µM (active); in the assay with HCC 2998, 11.7 µM (inactive); in the assay on BT-549, 7.52 µM (inactive). In addition, the GI50 was 9.73 µM (inactive) with SNB-19; 1.31 µM (inactive) in the assay with HOP-92; 11.7 µM (inactive) in the assay with NCI-H460; 6.44 µM with HCT-15; 1.09 µM (active) in the assay with 786-0; 2.47 µM (inactive) in the assay on HL-60. Besides, the GI50 is 0.055 µM (active) in the assay on LOX IMVI and 3.21 µM (inactive) in the assay with KM12.

Turning to `C=CCCCCOC1C=CC(O)C(CO)O1` (stereo not given), the GI50 in the assay on A549, in the assay with MDA-MB-231, in the assay with UACC-257, in the assay with MDA-N, with NCI-H23 and with U-251 was > 100 µM (inactive) in each case. Moreover, the GI50 in the assay on SW-620, in the assay on CAKI-1, in the assay with SK-MEL-28, in the assay with CCRF-CEM, in the assay on HCC 2998 and in the assay with BT-549 was > 100 µM (inactive) in each case. The GI50 was > 100 µM (inactive) with SNB-19; > 100 µM (inactive) with HOP-92; > 100 µM (inactive) in the assay on NCI-H460; over 100 µM in the assay with HCT-15; > 100 µM (inactive) in the assay with 786-0; > 100 µM (inactive) in the assay on HL-60. Also, the GI50 with LOX IMVI and in the assay with KM12 was > 100 µM (inactive) each time.

Take `CCCCCCCCCCCCCC(=O)OCC(CCS(=O)(=O)O[C@H]1CC[C@@]2(C)C(=CC[C@@H]3C2CC[C@]2(C)C(=O)CCC32)C1)OC(=O)CCCCCCCCCCCCC` (stereo not given in full): the GI50 in the assay with A549, in the assay with MDA-MB-231, in the assay with UACC-257, in the assay with MDA-N, in the assay with NCI-H23 and in the assay on U-251 was > 100 µM (inactive) each time. In addition, the GI50 with SW-620, with CAKI-1, in the assay with SK-MEL-28, in the assay with CCRF-CEM, in the assay with HCC 2998 and with BT-549 was > 100 µM (inactive) throughout. For the same molecule, the GI50 in the assay on SNB-19 was > 100 µM (inactive); in the assay on HOP-92 it was > 100 µM (inactive); in the assay on NCI-H460, > 100 µM (inactive); in the assay on HCT-15 it was over 100 µM; in the assay on 786-0, > 100 µM (inactive); in the assay with HL-60, > 100 µM (inactive). Also, the GI50 with LOX IMVI and with KM12 was > 100 µM (inactive) throughout.

`O=C(Nc1c(C(F)(F)F)cc(-c2ccccc2)[nH]c1=O)N1CCOCC1`: the GI50 in the assay on A549 was 79.1 µM (inactive); in the assay on MDA-MB-231, > 100 µM (inactive); in the assay with UACC-257, 78.3 µM (inactive); in the assay with MDA-N, 77.1 µM (inactive); with NCI-H23, > 100 µM (inactive); with U-251, 78.5 µM (inactive). Further, the GI50 in the assay with SW-620 was > 100 µM (inactive); in the assay with CAKI-1, > 100 µM (inactive); in the assay on SK-MEL-28 it was > 100 µM (inactive); with CCRF-CEM it was 46.3 µM (inactive); in the assay on HCC 2998 it was > 100 µM (inactive); with BT-549 it was > 100 µM (inactive). In addition, the GI50 is > 100 µM (inactive) with SNB-19; 58.9 µM (inactive) with HOP-92; > 100 µM (inactive) with NCI-H460; over 100 µM in the assay on HCT-15; > 100 µM (inactive) in the assay with 786-0; 26.9 µM (inactive) in the assay on HL-60. Moreover, the GI50 in the assay with LOX IMVI and in the assay with KM12 was > 100 µM (inactive) throughout.

Take `CC/C(Cl)=N\OC(=O)Nc1ccc(F)cc1F`: the GI50 was 19.9 µM (inactive) in the assay on A549; 17.5 µM (inactive) in the assay with MDA-MB-231; 17.3 µM (inactive) in the assay with UACC-257; 5.87 µM (inactive) with MDA-N; 20 µM (inactive) in the assay with NCI-H23; 22.4 µM (inactive) in the assay on U-251. Also, the GI50 in the assay on SW-620 is 1.93 µM (inactive); with CAKI-1 it was 1.71 µM (inactive); in the assay on SK-MEL-28, 17.7 µM (inactive); with CCRF-CEM, 1.54 µM (inactive); with HCC 2998, 19.3 µM (inactive); with BT-549 it was 2.38 µM (inactive). The GI50 in the assay with SNB-19 is 25.4 µM (inactive); in the assay with HOP-92 it was 1.93 µM (inactive); in the assay on NCI-H460, 29.1 µM (inactive); in the assay with HCT-15 it was 2.34 µM; in the assay with 786-0, 4.38 µM (inactive); in the assay with HL-60 it was 1.91 µM (inactive). Further, the results for the GI50 in the assay with LOX IMVI and in the assay with KM12 were 2.5 µM (inactive) and 19.9 µM (inactive), respectively.

With `O=C(N/N=C1\C(=O)Nc2c(Cl)cc(Cl)cc21)C(=O)Nc1cccc(C(F)(F)F)c1`, the GI50 in the assay with A549 was > 100 µM (inactive); in the assay with MDA-MB-231, 94.4 µM (inactive); in the assay on UACC-257 it was > 100 µM (inactive); in the assay on MDA-N, 54 µM (inactive); in the assay with NCI-H23, > 100 µM (inactive); in the assay with U-251, 97.5 µM (inactive). Moreover, the GI50 in the assay on SW-620, in the assay on CAKI-1, in the assay with SK-MEL-28, in the assay with CCRF-CEM, in the assay on HCC 2998 and in the assay with BT-549 was > 100 µM (inactive) each time. Further, the GI50 was > 100 µM (inactive) in the assay with SNB-19; > 100 µM (inactive) with HOP-92; > 100 µM (inactive) with NCI-H460; over 100 µM in the assay on HCT-15; > 100 µM (inactive) with 786-0; 62.8 µM (inactive) in the assay with HL-60. The GI50 in the assay on LOX IMVI and with KM12 was > 100 µM (inactive) throughout.
